Series [1] relates to murine mammary carcinoma cells (4T1). In words: MTT cytotoxicity assay, 4T1. Format: cell-based. As to conditions: Mus musculus, light or radiation study; 4T1, 660 nm irradiation 12 J/cm^2. The procedure: (§1) DMEM medium was replaced with saline to prevent false positive interference. Then the cells were exposed to different following treatments: 1) cells incubated with PBS; 2) cells incubated with PBS under 660 nm irradiation (20 mW/cm2, 10 min); 3) cells incubated with QTCy7-R; 4) cells incubated with QTCy7-R under 660 nm irradiation (20 mW/cm2, 10 min). After being different treated, the cells were stained with Calcein-AM and Propidium Iodide (PI) according to the manufacture instruction. Then the confocal fluorescence imaging was carried out and recorded with a 10 × objective lens.
(§2) Cytotoxicity was tested by the reduction of methyl thiazolyl tetrazolium to formazan by succinic acid dehydrogenase in the mitochondria of living cells (MTT assay). […] The MTT solution was carefully removed and 100 μL DMSO was added to dissolve formazan, and the absorbance of each well was measured by a multifunctional microplate reader at 570 nm and 630 nm. […]
(§3) Where “OD” represent the absorbance at 570 nm and 630 nm, “ps” and “control” represent experimental groups and control groups, respectively. […]
(§4) And the fluorescence signals were monitored at different post -injection time by a NightOWL II LB983 small animal in vivo imaging system (German). […]

A short description of series [2]: In vivo biosafety (body weight, H&E staining of major organs). More on the design: species or system BALB/c mice. The procedure: The efficacy and safety of each therapeutic group were also evaluated by performing a hematoxylin and eosin (H&E) staining assay of major organs and tumor tissue (Figures 10g and S23). […]
of major organs, the mice L) was intravenously injected with QTCy7-Ac (200 μM, 100 μL) 2 hours in advance were killed and the main organs and tumors were removed for […]
Tumor suppression experiments of 4T1-subcutaneous tumor model
To confirm the in vivo PDT efficacy of QTCy7-Ac, all the BALB/c mice were divided into 6 groups: 1) saline injection; 2) saline injection with 660 nm irradiation (100 mW/cm2, 15 min); 3) QTCy7-Ac (200 μM, 100 μL) intratumoral injection; 4) QTCy7-Ac (200 μM, 100 μL) intratumoral injection with 660 nm irradiation (100 mW/cm2, 15 min); 5) QTCy7-Ac (200 μM, 100 μL) intravenous injection; 6) QTCy7-Ac (200 μM, 100 μL) intravenous injection with 660 nm irradiation (100 mW/cm2, 15 min); When the volume of subcutaneous tumors reached about 100 mm 3, mice were injected with PBS or QTCy7-Ac, respectively. […] In the following half month, the tumor volume of all the mice was measured every two days by a vernier caliper. The volume of tumors was calculated by the following formula: […]
The in vivo biocompatibility was evaluated by using measurement mice body weight and H&E slice histological analysis. […]
Data were expressed as mean ± standard deviation. […]

In series [3] the test system is human mammary carcinoma (MCF7). In words: MTT cytotoxicity assay, MCF7. Format: cell-based. The note with it: light or radiation study, MCF7, 660 nm irradiation 12 J/cm^2. The method, then: as §1, §2, §3, §4
The subject of series [4] is 4T1 subcutaneous solid tumor. In words: In vivo fluorescence imaging of 4T1 tumor-bearing mice. Set-up: species or system BALB/c mice.
From the text: The prospective in vitro results prompted us to further explore in vivo application possibility of QTCy7-Ac, and a solid tumor model of BALB/c mice was established by inoculating 4T1 cells subcutaneously under the armpit (Figure 10a). All the BALB/c mice were purchased from Liaoning Changsheng Biotechnology Co., Ltd., and the animal experiments were approved by the Local Scientific Research Ethics Review Committee of the Animal Ethics Committee of Dalian University of Technology (ID no. // Ethics Approval No. 2021-043). When the tumor volume reached 100 mm^3, fluorescence imaging was performed at different time points after intravenous injection of QTCy7-Ac. […] To test this hypothesis, the mice were executed and dissected 2.5 h after intravenous injection, and the fluorescence imaging of the main organs and tumor was performed.
DMEM medium was replaced with saline to prevent false positive interference. […] Then the confocal fluorescence imaging was carried out and recorded with a 10 × objective lens.
as §2

“Also recorded” adds a separate entry of the source.

As a reminder, the IC50 is the point on the concentration scale where inhibition reaches its midpoint. Read a high IC50 as weaker potency in that assay. Turning to `CCOC(=O)C1=C/C(=C\C=C2/Sc3ccccc3N2CC)C(=O)C(/C=C/c2sc3ccccc3[n+]2CC)=C1` [QTCy7-Ac], the IC50 is roughly 500 nM in series [1] and roughly 600 nM in series [3]. Moreover, in series [2] (after 16 days of treatment), the “H&E staining of major organs (heart, liver, spleen, lung, kidney)” value is “not observed”. Moreover, the body weight changes entry in series [2] (during the treatment) is reported as “no abnormal body weight changes”. In addition, the “time at which tumor region is lit up” value in series [4] (after intravenous injection, 200 μM 100 μL) is “around 60 min”. Moreover, in series [4] (organs and tumor 2.5 h after intravenous injection), the “route of metabolism / organ distribution by ex vivo fluorescence” value is given as “metabolized primarily through the kidney; also recorded: non-negligible fluorescence signal stronger than the liver”.

The record behind these values is PMC10451034, “Highly Efficient Photosensitizers with Molecular Vibrational Torsion for Cancer Photodynamic Therapy” (ACS Central Science, 2023).
